Counter-ions that a name gives are not always drawn. Like-named read-outs stand apart in the source and are kept apart here.
Assays:
[1] = test system: ARE/Nrf2 pathway (CellSensor ARE-bla HepG2 cell line); test: ARE-bla β-lactamase reporter gene assay; type: cell-based; details: HepG2 cells
p53 = details: ref PubChem AID 720552; cited from earlier work
[2] = test system: activator protein 1 (AP1); details: assays previously performed; cited from earlier work
heat shock element (HSE) = details: ref PubChem AID 743228; cited from earlier work
in vitro = details: human

| SMILES | Activation of ARE-β-lactamase expression [1] | Shape of activity in the ARE-bla assay [1] | Cytotoxicity to HepG2 cells (CTG) (HepG2 cells; human, 18 h) | other results |
| --- | --- | --- | --- | --- |
| OC[C@H]1O[C@H]([S-])[C@H](O)[C@@H](O)[C@@H]1O.[Au+] [Aurothioglucose] | directly activated ARE-β-lactamase expression | bell shaped | – | Cytotoxicity to HepG2 cells (CTG) (HepG2 cells): toxic at the highest concentrations; Activity in β-lactamase reporter gene assay for p53 (p53): not active |
| CC(C)(C)c1ccc(C(=O)CCCN2CCC(OC(c3ccccc3)c3ccccc3)CC2)cc1 [Ebastine] | – | – | cytotoxic to HepG2 cells | – |
| c1ccc2c(c1)OCC(C1=NCCN1)O2 (centres unmarked) [Idazoxan hydrochloride] | directly activated ARE-β-lactamase expression | simple increase in ARE activation | not toxic to HepG2 cells at the concentrations tested | Activity in β-lactamase reporter gene assay for AP1 [2]: not active in any of these assays; Activity in β-lactamase reporter gene assay for p53 (p53): not active in any of these assays; Activity in β-lactamase reporter gene assay for HSE (heat shock element (HSE)): not active in any of these assays |
| O=C1c2ccccc2C(=O)c2c(NCCc3ccc(O)cc3)ccc(NCCc3ccc(O)cc3)c21 [JFD00244] | active in only one repetition | – | – | – |
| Cc1ccccc1/C=C/C1=NCCN1 [Metrazoline oxalate] | directly activated ARE-β-lactamase expression | simple increase in ARE activation | not toxic to HepG2 cells at the concentrations tested | – |
| COc1c(C)c2c(c(O)c1C/C=C(\C)CCC(=O)O)C(=O)OC2 [Mycophenolic acid] | active in only one repetition | – | – | – |
| COc1cccc2c1C(=O)c1c(O)c3c(c(O)c1C2=O)C[C@@](O)(C(=O)CO)C[C@@H]3O[C@H]1C[C@H](N2CCO[C@H](OC)C2)[C@H](O)[C@H](C)O1 [Nemorubicin] | – | – | cytotoxic to HepG2 cells | – |
| O=C1OC(=O)[C@H]2[C@@H]1[C@@H]1CC[C@H]2O1 [Norcantharidin] | active in only one repetition | – | – | – |
| CC(C)(C)c1ccc(C(O)CCCN2CCC(C(O)(c3ccccc3)c3ccccc3)CC2)cc1 (centres unmarked) [Terfenadine] | – | – | – | IC50 at 24 h (in vitro): 6.7 µM |
| C/C=C(/C)C(=O)O[C@H]1C(C)=C2[C@H]([C@@H]1OC(=O)CCCCCCC)[C@@](C)(OC(C)=O)C[C@H](OC(=O)CCC)[C@@]1(O)[C@H]2OC(=O)[C@@]1(C)O [Thapsigargin] | – | – | cytotoxic to HepG2 cells | – |

Reference: article PMC4835244 (Stem Cells Translational Medicine, 2016)
